Source: ChEMBL document CHEMBL3507680, “University of Dundee, Gates Library screen for HepG2 cell viability”

Test: Human HepG2 cell viability assay in 384 well format
Assay type: toxicity, cell-based
Set-up: dose 125 nL, time 70.5 hour; concentration not given beside the values
Conditions: HepG2 cells, read-out: Inhibition

SMILES | cytotoxicity at 70.5 h
CN1C2(CCN(Cc3ccc(F)cc3)C2)c2ccccc2S1(=O)=O (stereo unspecified) | 13.5%
CCN1C(=O)CC(c2cnn(C)c2)C12CCN(C(=O)C1CC=CC1)CC2 (stereo unspecified) | 0.244%
c1ccc(NCc2cn3c(n2)CN(Cc2ccoc2)CC3)nc1 | -0.75%
CN1C(=O)CC(c2cnn(C)c2)C12CCN(C(=O)c1ccc[nH]1)CC2 (stereo unspecified) | -5.07%
O=c1cc(Cn2ccnc2)nc2n1CCCN(Cc1ccco1)C2 | -5.53%
O=c1cc(Cn2cncn2)nc2n1CCCN(Cc1ccco1)C2 | -3.55%
c1cnc(OCc2nnc3n2CCN(Cc2ccco2)C3)nc1 | -0.839%
CCOC(=O)C1CN(S(=O)(=O)CC)Cc2ncn(CC)c21 (stereo unspecified) | 0.473%
Cn1cc(C2CC(=O)NC23CCN(C(=O)c2ccc[nH]2)CC3)cn1 (stereo unspecified) | -1.53%
CC(=O)N1CCCc2sc(C(=O)Nc3ccc(C)nc3)nc21 | -1.24%
O=C(C1CCCCC1)N1CCO[C@@H]2CNC[C@@H]21 | -2.15%
Cc1noc([C@]23COC[C@H]2CN(S(=O)(=O)N(C)C)C3)n1 | -1.88%
Cc1noc([C@]23COC[C@H]2CN(S(=O)(=O)C2CC2)C3)n1 | -1.24%
COCC1c2c(cnn2C)CCN1C(=O)c1ccc2c(c1)OCO2 (stereo unspecified) | 1.82%
c1cncc(-c2ccc3c(c2)CCC32CCNCC2)c1 | 17.8%
CN(C)C(=O)N1CCC2(CC(=O)N(c3ccc4c(c3)OCO4)C2)C1 (stereo unspecified) | 1.41%
Cc1ccc(NC2CCN(C(=O)CCc3c(C)noc3C)CC2)nn1 | -11.1%
Cn1cc(C2CCCN2C(=O)c2cn(-c3ccccc3)nn2)cn1 (stereo unspecified) | -0.276%
Cc1ccc(-n2ncc(C(=O)N3CCCC3c3cnn(C)c3)c2C)cc1 (stereo unspecified) | 11.4%

SMILES | cytotoxicity at 70.5 h
NC(=O)c1cccc(C(=O)N2CCCC(n3ccnc3)C2)c1 (stereo unspecified) | -3.58%
NC(=O)C1CN(C(=O)Nc2ccccc2Oc2ccccc2Cl)CCO1 (stereo unspecified) | -6.93%
Cc1cc(NC(=O)CN2CCN(c3nccs3)C(C)C2)on1 (stereo unspecified) | -6.15%
Cc1cc(NC(=O)CN2CCN(c3nccs3)C(C)C2)no1 (stereo unspecified) | -8.11%
Cc1n[nH]c(C)c1NC(=O)CN1CCN(c2nccs2)C(C)C1 (stereo unspecified) | -1.01%
CC(C)c1noc(CN2CCN(C(=O)c3cccc(F)c3)CC2)n1 | -8.17%
COc1cccc(C(=O)N2CCN(Cc3nc(C(C)C)no3)CC2)c1 | -5.91%
COc1c(C2CCCN2Cc2nc(-c3ccco3)no2)c(C)nn1C (stereo unspecified) | -2.62%
CN1CCOC(CN(C(=O)CN2CCCC2=O)c2nccs2)C1 (stereo unspecified) | 9.36%
Cc1ccc(NC2CCN(C(=O)CCc3nccs3)CC2)nn1 | -12.3%
c1ccc2oc(CN3CCCCC3Cn3cncn3)nc2c1 (stereo unspecified) | -4.46%
NC(=O)c1cccc(OCC(=O)N2CCCC(n3ccnc3)C2)c1 (stereo unspecified) | -11.1%
CN(Cc1nnc(C2CC2)n1C)C1CCN(Cc2nccn2C)C1 (stereo unspecified) | 2.78%
COc1cccc2cc(CNCc3ccnc(N4CCCCC4)c3)oc12 | 3.87%
CCn1c(C)nnc1CN(C)C1CCN(Cc2nnc(C3CC3)o2)C1 (stereo unspecified) | 2.54%
CCc1nnc(CN2CCCC2Cn2cc(C)cn2)o1 (stereo unspecified) | 17.8%
Cn1cnc(S(=O)(=O)NCCCN2CCCC2)c1Cl | -4.58%
O=C(Nc1nc2c(s1)CNCC2)NC1CCCC1 | 18.7%
CCCC(=O)N(CCCN1CCOCC1)c1nc2c(C)ccc(Cl)c2s1 | -3.12%

SMILES | cytotoxicity at 70.5 h
CCCN1CCC2(C1)c1ccccc1S(=O)(=O)N2Cc1ccccc1 (stereo unspecified) | 3.08%
CS(=O)(=O)NCc1cn2c(n1)CN(Cc1ccoc1)CC2 | 3.17%
Fc1cnc(N2CC3(CCN(CC4CC4)C3)C2)nc1 | -0.963%
O=C(Cc1ccsc1)N1C[C@@H]2OCCN(CC3CC3)[C@@H]2C1 | 1.39%
CN(C)C(=O)COCc1nnc2n1CCN(Cc1ccsc1)C2 | 0.94%
Cc1nc(-c2cc(C(=O)N3CCCN(C)CC3)c3ccccn23)cn1C | -2.18%
O=C(C1CN(CC2CCOCC2)CC12CCOCC2)N1CCOCC1 (stereo unspecified) | -2.61%
O=S(=O)(C1CC1)N1CCC2(CC1)CN(Cc1nccs1)CCO2 | -5.12%
Fc1cnc(N2CCCC3(CN(Cc4ccccc4)CCO3)C2)nc1 (stereo unspecified) | -4.05%
Cc1cccc(CO[C@@H]2CO[C@@]3(CCN(S(=O)(=O)N(C)C)C3)C2)n1 | -4.3%
COCCN1CCO[C@@H]2CN(C(=O)Cc3cccc(F)c3)CC[C@@H]2C1 | -0.585%
Cc1ccc(NCc2cn3c(n2)CN(Cc2ccoc2)CC3)nn1 | 12%
CC(C)N(C)C[C@H]1OC[C@@H]2CCN(Cc3cccc(C#N)c3)C[C@@H]21 | 14.2%
O=c1ccc2c(n1Cc1cccnc1)CCN(C1CCOC1)CC2 (stereo unspecified) | -2.89%
CC(C)Nc1ncnc2c1CCN(Cc1nccn1C)CC2 | 8.85%
COCCN1CCO[C@@H]2CN(C(=O)NCc3cccnc3)CC[C@@H]2C1 | 0.801%
CN(C)C[C@H]1OC[C@@H]2CN(C(=O)NCc3cccnc3)CC[C@@H]21 | 0.184%
CC(C)N1[C@H](Cn2cccn2)C[C@@H]2CN(C3CCOCC3)CC[C@@H]21 | -1.14%
